Experimental data reported in ChEMBL document CHEMBL5352388 (Eur J Med Chem, 2022).
The source made the active and inactive calls. No cut-off for these calls is given here.

Tests used:
HeLa = assay: Antiproliferative activity against human HeLa cells assessed as inhibition of cell growth incubated for 72 hrs by CCK-8 assay; type: functional, cell-based
[1] = Half life in human liver microsomes measured upto 60 mins in presence of NADPH by LC/MS/MS analysis; type: ADME, Microsome
[2] = Intrinsic clearance in human liver microsomes measured upto 60 mins in presence of NADPH by LC/MS/MS analysis; type: ADME, Microsome; conditions: read-out: CLH
[3] = Metabolic stability in human liver microsomes assessed as compound remaining measured upto 60 mins by LC/MS/MS analysis; type: ADME, Microsome; conditions: read-out: Stability
CYP1A2 = biological target: T1, CYP1A2 (Homo sapiens, UniProt P05177); assay: Inhibition of CYP1A2 (unknown origin) at 10 uM incubated for 20 mins in presence of NADPH by LC/MS/MS analysis relative to control; type: ADME
T1 sequence (P05177 whole entry): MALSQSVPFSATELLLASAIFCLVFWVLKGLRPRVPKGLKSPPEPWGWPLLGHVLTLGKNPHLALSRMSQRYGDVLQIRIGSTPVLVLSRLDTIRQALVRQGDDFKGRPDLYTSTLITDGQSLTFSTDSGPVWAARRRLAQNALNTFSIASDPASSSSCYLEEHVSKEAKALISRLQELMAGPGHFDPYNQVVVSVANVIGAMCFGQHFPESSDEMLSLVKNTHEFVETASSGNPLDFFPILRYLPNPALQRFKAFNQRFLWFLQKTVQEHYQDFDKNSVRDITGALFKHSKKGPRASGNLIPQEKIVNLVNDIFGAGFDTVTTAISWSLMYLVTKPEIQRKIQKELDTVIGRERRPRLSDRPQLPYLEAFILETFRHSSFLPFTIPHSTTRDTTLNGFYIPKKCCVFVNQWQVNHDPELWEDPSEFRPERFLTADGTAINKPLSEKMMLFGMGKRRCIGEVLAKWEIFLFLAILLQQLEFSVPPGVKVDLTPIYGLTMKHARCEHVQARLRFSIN

CYP2C9 = CYP2C9 (Homo sapiens, UniProt P11712); assay: Inhibition of CYP2C9 (unknown origin) at 10 uM incubated for 20 mins in presence of NADPH by LC/MS/MS analysis relative to control; type: ADME
[4] = Tmax in Sprague-Dawley rat at 10 mg/kg,po by LC-MS/MS analysis; type: ADME, organism-based; conditions: in vivo
[5] = Half life in Sprague-Dawley rat at 10 mg/kg,po by LC-MS/MS analysis; type: ADME, organism-based; conditions: in vivo
[6] = AUC (0-infinity) in Sprague-Dawley rat at 10 mg/kg,po by LC-MS/MS analysis; type: ADME, organism-based; design: dose 10 mg/kg, route po; conditions: in vivo
[7] = Half life in Sprague-Dawley rat at 3 mg/kg,iv by LC-MS/MS analysis; type: ADME, organism-based; conditions: in vivo
[8] = Clearance in Sprague-Dawley rat at 3 mg/kg,iv by LC-MS/MS analysis; type: ADME, organism-based; conditions: in vivo
[9] = Volume of distribution in steady state in Sprague-Dawley rat at 3 mg/kg,iv by LC-MS/MS analysis; type: ADME, organism-based; conditions: in vivo, read-out: Vdss
[10] = AUC (0-t) in Sprague-Dawley rat at 3 mg/kg,iv by LC-MS/MS analysis; type: ADME, organism-based; design: dose 3 mg/kg, route iv; conditions: in vivo
[11] = biological target: T2, Lysine-specific histone demethylase 1A (Homo sapiens, UniProt O60341); assay: Inhibition of LSD1 (unknown origin) assessed as inhibition constant using H3K4me2 as substrate by Lineweaver-Burk plot analysis
[12] = biological target: T2, Lysine-specific histone demethylase 1A; assay: Inhibition of LSD1 in human A549 cells assessed as increase in H3K4me1 protein level at 1 to 4 uM incubated for 72 hrs by Western blotting assay; type: cell-based; conditions: dose 1-4 µM
[13] = biological target: T2, Lysine-specific histone demethylase 1A; assay: Inhibition of LSD1 in human A549 cells assessed as increase in H3K4me2 protein level at 1 to 4 uM incubated for 72 hrs by Western blotting assay; type: cell-based; conditions: dose 1-4 µM
[14] = biological target: T2, Lysine-specific histone demethylase 1A; assay: Inhibition of LSD1 in human A549 cells assessed as increase in H3K9me1 protein level at 1 to 4 uM incubated for 72 hrs by Western blotting assay; type: cell-based; conditions: dose 1-4 µM
A549 [15] = assay: Antitumor activity against human A549 cells xenografted in BALB/c mouse assessed as reduction in tumor growth at 20 mg/kg,ip administrated for 15 days; type: functional, organism-based; conditions: time 15.0 day
[16] = Toxicity in BALB/c mouse xenografted with human A549 cells assessed as change in body weight at 10 mg/kg,ip administrated for 15 days; type: organism-based; conditions: in vivo, 360 h, time 15 day
[17] = Toxicity in BALB/c mouse xenografted with human A549 cells assessed as change in body weight at 20 mg/kg,ip administrated for 15 days; type: organism-based; conditions: in vivo, 360 h, time 15 day
A549 [18] = assay: Antitumor activity against human A549 cells xenografted in BALB/c mouse assessed as reduction in KI67 positive cells at 10 mg/kg,ip administrated for 15 days; type: functional, organism-based; conditions: time 15.0 day
A549 [19] = assay: Antitumor activity against human A549 cells xenografted in BALB/c mouse assessed as chromatin condensation at 20 mg/kg,ip administrated for 15 days; type: functional, organism-based; conditions: time 15.0 day
A549 [20] = assay: Antitumor activity against human A549 cells xenografted in BALB/c mouse assessed as appearance of pyknosis at 20 mg/kg,ip administrated for 15 days; type: functional, organism-based; conditions: time 15.0 day
A549 [21] = assay: Antitumor activity against human A549 cells xenografted in BALB/c mouse assessed as decrease in tumor cell density at 10 mg/kg,ip administrated for 15 days; type: functional, organism-based; conditions: time 15.0 day
A549 [22] = assay: Antitumor activity against human A549 cells xenografted in BALB/c mouse assessed as chromatin condensation at 10 mg/kg,ip administrated for 15 days; type: functional, organism-based; conditions: time 15.0 day
A549 [23] = assay: Antitumor activity against human A549 cells xenografted in BALB/c mouse assessed as appearance of pyknosis at 10 mg/kg,ip administrated for 15 days; type: functional, organism-based; conditions: time 15.0 day
[24] = biological target: T3, Amine oxidase [flavin-containing] B (Homo sapiens, UniProt P27338)
T3 sequence (P27338 whole entry): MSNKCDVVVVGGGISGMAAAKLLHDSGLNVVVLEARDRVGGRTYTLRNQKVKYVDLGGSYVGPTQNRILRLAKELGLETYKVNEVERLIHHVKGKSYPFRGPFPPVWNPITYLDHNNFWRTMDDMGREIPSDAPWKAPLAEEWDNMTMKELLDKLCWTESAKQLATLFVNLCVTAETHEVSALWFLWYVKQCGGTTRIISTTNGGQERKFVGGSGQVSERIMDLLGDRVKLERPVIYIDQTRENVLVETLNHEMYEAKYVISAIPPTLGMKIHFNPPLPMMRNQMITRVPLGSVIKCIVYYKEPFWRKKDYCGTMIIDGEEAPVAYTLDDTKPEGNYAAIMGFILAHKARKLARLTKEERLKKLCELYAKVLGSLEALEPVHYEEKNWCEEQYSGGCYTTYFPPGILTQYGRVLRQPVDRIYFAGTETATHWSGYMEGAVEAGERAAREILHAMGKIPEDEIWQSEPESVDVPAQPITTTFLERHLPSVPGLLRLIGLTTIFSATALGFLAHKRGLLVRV
Description: Inhibition of recombinant MAO-B (unknown origin) incubated for 60 mins by luminescence based flow cytometry

A549 [25] = assay: cells; conditions: Homo sapiens, A549, 72 h
Description: Antiproliferative activity against human A549 cells assessed as inhibition of cell growth incubated for 72 hrs by CCK-8 assay

MGC-803 = assay: cells; conditions: Homo sapiens, MGC-803, 72 h
Description: Antiproliferative activity against human MGC-803 cells assessed as inhibition of cell growth incubated for 72 hrs by CCK-8 assay

Sequence of CYP2C9 (P11712 whole entry): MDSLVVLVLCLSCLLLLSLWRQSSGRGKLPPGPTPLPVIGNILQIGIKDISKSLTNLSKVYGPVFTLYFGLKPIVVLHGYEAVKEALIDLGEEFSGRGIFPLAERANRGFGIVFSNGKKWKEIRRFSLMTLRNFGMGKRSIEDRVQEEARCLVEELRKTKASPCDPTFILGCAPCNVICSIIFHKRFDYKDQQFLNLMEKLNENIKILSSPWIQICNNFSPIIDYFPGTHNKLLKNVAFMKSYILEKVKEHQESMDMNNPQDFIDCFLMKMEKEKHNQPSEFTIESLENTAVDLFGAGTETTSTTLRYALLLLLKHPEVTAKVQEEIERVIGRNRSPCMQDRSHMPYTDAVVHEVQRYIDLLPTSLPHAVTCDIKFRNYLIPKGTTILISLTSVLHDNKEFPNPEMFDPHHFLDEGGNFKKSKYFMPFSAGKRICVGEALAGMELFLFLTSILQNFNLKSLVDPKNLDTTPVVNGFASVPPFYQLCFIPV

IC50 (HeLa): 3300 nM | half-life [1]: 2.42 h | microsomal CLint [2]: 9.6 µL/min/mg | remaining at 1 h [3]: 102% | inhibition at 20 min, 10 µM (CYP1A2): 0% | inhibition at 20 min, 10 µM (CYP2C9): 47.7% | Tmax [4]: 4 h | half-life [5]: 6.27 h | AUC(0-inf) [6]: 362 ng·h/mL | half-life [7]: 8.78 h | clearance [8]: 35.5 mL/min/kg | Vd [9]: 17.4 L/kg | AUC(0-t) [10]: 1320 ng·h/mL | Ki [11]: 155 nM | inhibition [12]: Dose-Dependent Effect | inhibition [13]: Dose-Dependent Effect | inhibition [14]: Dose-Dependent Effect | IC50 [24]: 720 nM | IC50 (A549 [25]): 740 nM | IC50 (MGC-803): 5800 nM
Structure (SMILES): Cc1ccc(-c2cc3c(cc2-c2ccc(C#N)cc2)c(C(=O)N2CCC(N)CC2)cn3S(=O)(=O)c2ccc(F)cc2)cc1
Activity (A549 [15]): Active | Activity [16]: Non-Toxic | Activity [17]: Non-Toxic | Activity (A549 [18]): Active | Activity (A549 [19]): Active | Activity (A549 [20]): Active | Activity (A549 [21]): Active | Activity (A549 [22]): Active | Activity (A549 [23]): Active
